{
  "source": "ChEMBL document CHEMBL1201862",
  "about": "“PubChem BioAssay data set” (2004)",
  "key": {"[1]": {"molecular_target": "Intestinal-type alkaline phosphatase (Homo sapiens, UniProt P09923)", "sequence (P09923 whole entry)": "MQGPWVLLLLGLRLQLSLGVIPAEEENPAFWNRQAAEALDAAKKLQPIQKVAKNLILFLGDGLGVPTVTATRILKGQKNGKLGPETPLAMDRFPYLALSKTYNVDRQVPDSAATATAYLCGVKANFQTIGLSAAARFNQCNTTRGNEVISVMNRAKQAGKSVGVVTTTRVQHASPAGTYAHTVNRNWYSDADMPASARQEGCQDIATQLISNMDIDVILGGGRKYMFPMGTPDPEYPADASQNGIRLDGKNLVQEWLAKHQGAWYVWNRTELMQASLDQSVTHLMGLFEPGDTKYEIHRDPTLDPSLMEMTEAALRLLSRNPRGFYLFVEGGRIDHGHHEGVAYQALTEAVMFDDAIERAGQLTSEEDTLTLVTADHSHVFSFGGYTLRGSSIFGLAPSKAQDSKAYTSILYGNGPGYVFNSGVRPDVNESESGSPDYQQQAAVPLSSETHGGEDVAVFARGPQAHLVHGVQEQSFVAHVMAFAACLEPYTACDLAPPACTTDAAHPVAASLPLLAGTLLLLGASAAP", "assay": "inhibition of human intestinal alkaline phosphatase – biochemical, dose response (AID 488876)", "format": "functional"}, "[2]": {"molecular_target": "T1, Alkaline phosphatase, tissue-nonspecific isozyme (Homo sapiens, UniProt P05186)", "T1 sequence (P05186 whole entry)": "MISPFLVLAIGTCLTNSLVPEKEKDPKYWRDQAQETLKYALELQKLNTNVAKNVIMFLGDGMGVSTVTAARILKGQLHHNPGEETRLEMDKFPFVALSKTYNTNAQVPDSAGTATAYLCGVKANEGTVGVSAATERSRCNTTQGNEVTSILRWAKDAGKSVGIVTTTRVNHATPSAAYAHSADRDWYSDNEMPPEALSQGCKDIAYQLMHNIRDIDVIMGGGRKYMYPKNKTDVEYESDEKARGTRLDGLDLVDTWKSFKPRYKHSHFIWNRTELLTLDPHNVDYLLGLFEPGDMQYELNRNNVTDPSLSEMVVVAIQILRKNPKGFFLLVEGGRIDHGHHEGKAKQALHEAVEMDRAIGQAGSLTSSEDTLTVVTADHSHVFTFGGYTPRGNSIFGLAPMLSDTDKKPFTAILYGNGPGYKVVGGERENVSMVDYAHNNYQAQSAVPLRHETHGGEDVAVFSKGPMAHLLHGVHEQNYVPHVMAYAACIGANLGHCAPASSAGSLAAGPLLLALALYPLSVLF", "assay": "TNAP enzyme inhibition by screening hits, dose response, selectivity assay for mouse IAP inhibitor project, biochemical, human TNAP, uHTS hits (AID 488906)", "format": "functional"}, "[3]": {"assay": "inhibitors of intracellular T. cruzi replication, confirmation, NIH3T3 host cells, beta-gal luminescence (AID 2044);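 also: luminescent beta-galactosidase reporter signal from transgenic T. cruzi replicating inside host cells; inhibitors lower the luminescence signal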", "format": "functional, cell-based"}, "[4]": {"assay": "cytotoxicity toward NIH3T3 fibroblasts, dose response, counter-screen, cell-based, ATP luminescence, mouse fibroblasts (AID 2010);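 also: cells exposed to compound for about 90 hours before reading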", "format": "functional"}, "[5]": {"molecular_target": "Intestinal-type alkaline phosphatase (Mus musculus, UniProt P24822)", "assay": "PubChem AID 488785", "format": "functional"}, "[6]": {"molecular_target": "T2, G-protein coupled receptor 35 (Homo sapiens, UniProt Q9HC97)", "T2 sequence (Q9HC97 whole entry)": "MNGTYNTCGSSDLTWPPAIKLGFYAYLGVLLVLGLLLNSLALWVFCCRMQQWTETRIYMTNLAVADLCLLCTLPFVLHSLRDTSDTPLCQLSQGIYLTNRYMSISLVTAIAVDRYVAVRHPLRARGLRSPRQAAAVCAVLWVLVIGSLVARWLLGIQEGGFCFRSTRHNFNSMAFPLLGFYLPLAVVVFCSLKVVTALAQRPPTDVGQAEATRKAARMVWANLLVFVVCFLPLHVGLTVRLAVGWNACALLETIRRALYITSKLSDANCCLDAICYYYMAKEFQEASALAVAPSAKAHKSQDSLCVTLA", "assay": "SAR Analysis for the identification of Selective Antagonists of ERK1/2 Activity in GPR35-Overexpressing U2OS Cells. [Related pubchem assays: 2079, 2058 ]", "format": "functional, cell-based"}, "[7]": {"assay": "microbe, parasite or virus in culture", "format": "functional", "conditions": "Mycobacterium tuberculosis"}, "[8]": {"assay": "growth suppression of beta-catenin-knockout colon cells, dose response, cell-based, HCT116, human colon tumor (AID 1045);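 also: HCT116 colon tumor cells with beta catenin knocked out; cells exposed to compound for 60 hours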", "format": "functional"}, "[9]": {"assay": "growth suppression of PTEN-null colon cells, dose response, cell-based, HCT116 PTEN knockout (AID 1047);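 also: HCT116 colon tumor cells with PTEN knocked out; cells exposed to compound for 60 hours before readout; potency for loss of cell viability measured by luminescence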", "format": "functional"}, "[10]": {"molecular_target": "T2, G-protein coupled receptor 35", "assay": "GPR35 antagonists blocking zaprinast-driven arrestin recruitment, primary screen, imaging, U2OS, beta-arrestin-GFP, zaprinast agonist (AID 2058);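 also: antagonist potency meaning inhibition of agonist-induced arrestin redistribution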", "format": "functional"}, "[11]": {"molecular_target": "T3, Beta-2 adrenergic receptor (Homo sapiens, UniProt P07550)", "T3 sequence (P07550 whole entry)": "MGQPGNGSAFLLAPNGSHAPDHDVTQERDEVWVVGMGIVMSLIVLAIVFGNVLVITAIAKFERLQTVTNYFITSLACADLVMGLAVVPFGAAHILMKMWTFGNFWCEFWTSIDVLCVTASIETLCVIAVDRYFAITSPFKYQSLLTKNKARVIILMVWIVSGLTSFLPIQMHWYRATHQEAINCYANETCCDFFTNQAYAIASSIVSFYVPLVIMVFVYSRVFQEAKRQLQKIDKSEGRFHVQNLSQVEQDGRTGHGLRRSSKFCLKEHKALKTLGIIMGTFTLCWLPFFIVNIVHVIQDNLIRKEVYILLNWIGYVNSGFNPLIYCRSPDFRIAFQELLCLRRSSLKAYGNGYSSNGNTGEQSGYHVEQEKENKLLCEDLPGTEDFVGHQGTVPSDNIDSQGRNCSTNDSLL", "assay": "Dose response for HTS for Beta-2AR agonists via FAP method from Powderset3.", "format": "functional"}, "[12]": {"molecular_target": "G-protein coupled receptor 55 (Homo sapiens, UniProt Q9Y2T6)", "assay": "GPR55 antagonists, SAR follow-up, counter-screen for GPR35 antagonist project, imaging, image-based (AID 2397)", "format": "functional"}, "[13]": {"molecular_target": "T3, Beta-2 adrenergic receptor", "assay": "beta2AR agonists driving receptor internalization, dose response, cell-based, FAP fluorogen, flow cytometry, cherry pick 1 (AID 588763)", "format": "functional"}, "CAAX prenyl protease 2": {"molecular_target": "CAAX prenyl protease 2 (Homo sapiens, UniProt Q9Y256)", "assay": "human Rce1 protease inhibitors, dose response, biochemical, yeast membranes, quenched-peptide fluorescence, cherry-pick (AID 588849)"}, "[14]": {"molecular_target": "FAD-linked sulfhydryl oxidase ALR (Homo sapiens, UniProt P55789)", "sequence (P55789 whole entry)": "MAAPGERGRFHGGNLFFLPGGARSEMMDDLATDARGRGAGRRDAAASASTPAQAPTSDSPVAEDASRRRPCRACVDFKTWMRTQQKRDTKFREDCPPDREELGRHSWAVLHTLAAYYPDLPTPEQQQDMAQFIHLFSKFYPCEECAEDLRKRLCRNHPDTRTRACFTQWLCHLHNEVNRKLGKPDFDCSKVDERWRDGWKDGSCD", "assay": "inhibitors of human ALR sulfhydryl oxidase, dose response, biochemical, H2O2 detection, luminescence, cherry-pick (AID 493248)"}, "CAAX prenyl protease 1": {"molecular_target": "CAAX prenyl protease 1 (Saccharomyces cerevisiae S288c, UniProt P47154)", "assay": "Ste24 protease inhibitors, dose response, biochemical, S. cerevisiae, plate reader, cherry-pick (AID 488815)"}, "Trypsin": {"molecular_target": "Trypsin (Sus scrofa, UniProt P00761)", "sequence (P00761 whole entry)": "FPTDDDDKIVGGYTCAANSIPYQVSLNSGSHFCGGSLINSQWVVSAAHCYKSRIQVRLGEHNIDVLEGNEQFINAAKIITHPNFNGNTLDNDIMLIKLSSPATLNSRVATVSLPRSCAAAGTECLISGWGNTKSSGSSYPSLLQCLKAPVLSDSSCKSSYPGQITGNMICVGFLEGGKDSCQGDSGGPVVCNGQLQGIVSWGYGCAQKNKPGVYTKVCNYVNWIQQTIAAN", "assay": "porcine trypsin inhibitors, dose response, selectivity assay for Rce1 protease inhibitor project, biochemical, quenched peptide fluorescence, cherry-pick (AID 488789)"}, "[15]": {"molecular_target": "T4, Short transient receptor potential channel 4 (Mus musculus, UniProt Q9QUQ5)", "T4 sequence (Q9QUQ5 whole entry)": "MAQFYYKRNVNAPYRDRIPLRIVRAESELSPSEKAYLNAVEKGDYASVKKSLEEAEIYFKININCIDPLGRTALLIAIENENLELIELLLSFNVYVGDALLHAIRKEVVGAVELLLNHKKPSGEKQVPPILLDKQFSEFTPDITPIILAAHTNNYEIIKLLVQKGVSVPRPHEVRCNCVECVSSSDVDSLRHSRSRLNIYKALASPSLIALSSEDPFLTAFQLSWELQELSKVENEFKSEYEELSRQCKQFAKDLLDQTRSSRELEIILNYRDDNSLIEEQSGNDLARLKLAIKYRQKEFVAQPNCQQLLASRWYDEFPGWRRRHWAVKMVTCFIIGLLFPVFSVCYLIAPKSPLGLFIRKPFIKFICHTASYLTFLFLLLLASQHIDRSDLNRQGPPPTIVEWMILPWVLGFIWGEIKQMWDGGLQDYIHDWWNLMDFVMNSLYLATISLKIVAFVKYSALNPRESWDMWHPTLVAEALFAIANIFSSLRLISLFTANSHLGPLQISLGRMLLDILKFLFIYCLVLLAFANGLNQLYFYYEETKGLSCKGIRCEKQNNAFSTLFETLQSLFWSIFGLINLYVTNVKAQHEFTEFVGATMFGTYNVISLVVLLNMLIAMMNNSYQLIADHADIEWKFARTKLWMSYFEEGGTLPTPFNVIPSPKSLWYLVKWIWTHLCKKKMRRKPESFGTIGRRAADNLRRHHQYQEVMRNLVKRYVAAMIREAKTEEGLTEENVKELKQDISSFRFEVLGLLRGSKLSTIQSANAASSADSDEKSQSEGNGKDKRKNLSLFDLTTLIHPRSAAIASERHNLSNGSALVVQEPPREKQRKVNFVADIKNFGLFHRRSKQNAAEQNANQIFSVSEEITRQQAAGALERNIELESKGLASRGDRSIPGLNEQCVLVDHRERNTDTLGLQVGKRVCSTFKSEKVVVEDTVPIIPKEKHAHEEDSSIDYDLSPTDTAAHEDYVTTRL", "assay": "mouse TRPC4 channel inhibitors, dose response, cell-based, HEK293 TRPC4/mu-opioid, Fluo-4 calcium (AID 434942)", "format": "functional"}, "[16]": {"molecular_target": "T4, Short transient receptor potential channel 4", "assay": "SAR Analysis for the identification of selective inhibits of the transient receptor potential cation channel C4 (TRPC4): Automated Electrophysiology. [Related pubchem assays (depositor defined):AID2256]", "format": "functional"}, "Cytochrome P450 2D6": {"molecular_target": "Cytochrome P450 2D6 (Homo sapiens, UniProt P10635)"}, "[17]": {"molecular_target": "T5, Dual specificity protein phosphatase 6 (Rattus norvegicus, UniProt Q64346)", "T5 sequence (Q64346 whole entry)": "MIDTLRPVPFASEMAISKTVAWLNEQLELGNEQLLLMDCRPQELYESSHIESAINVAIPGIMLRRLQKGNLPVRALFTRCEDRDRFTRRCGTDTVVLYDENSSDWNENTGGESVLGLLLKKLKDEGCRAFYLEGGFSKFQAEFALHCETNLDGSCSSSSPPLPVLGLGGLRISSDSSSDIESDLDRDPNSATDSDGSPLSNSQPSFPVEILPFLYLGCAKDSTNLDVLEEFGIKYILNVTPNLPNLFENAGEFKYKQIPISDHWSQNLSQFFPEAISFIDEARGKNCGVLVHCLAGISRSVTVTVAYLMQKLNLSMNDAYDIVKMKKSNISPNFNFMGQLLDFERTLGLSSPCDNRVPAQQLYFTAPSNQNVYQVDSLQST", "assay": "MKP-3 phosphatase inhibitors, primary screen, biochemical, rat enzyme, in vitro (AID 425)"}, "[18]": {"molecular_target": "T6, Dual specificity protein phosphatase 3 (Homo sapiens, UniProt P51452)", "T6 sequence (P51452 whole entry)": "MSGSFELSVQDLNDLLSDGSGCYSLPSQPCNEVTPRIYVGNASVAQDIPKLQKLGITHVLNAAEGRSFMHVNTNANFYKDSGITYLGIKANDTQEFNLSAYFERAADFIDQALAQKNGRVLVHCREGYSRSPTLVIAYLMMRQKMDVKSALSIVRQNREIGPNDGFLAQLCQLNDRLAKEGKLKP", "assay": "VHR1 phosphatase inhibitors, primary screen, biochemical, absorbance, uHTS (AID 1654)"}, "[19]": {"molecular_target": "T7, Voltage-gated N-type calcium channel alpha-1B subunit/Amyloid beta A4 precursor protein-binding family A member 1 (Homo sapiens, UniProt Q00975+Q02410)", "T7 sequence (Q00975 whole entry)": "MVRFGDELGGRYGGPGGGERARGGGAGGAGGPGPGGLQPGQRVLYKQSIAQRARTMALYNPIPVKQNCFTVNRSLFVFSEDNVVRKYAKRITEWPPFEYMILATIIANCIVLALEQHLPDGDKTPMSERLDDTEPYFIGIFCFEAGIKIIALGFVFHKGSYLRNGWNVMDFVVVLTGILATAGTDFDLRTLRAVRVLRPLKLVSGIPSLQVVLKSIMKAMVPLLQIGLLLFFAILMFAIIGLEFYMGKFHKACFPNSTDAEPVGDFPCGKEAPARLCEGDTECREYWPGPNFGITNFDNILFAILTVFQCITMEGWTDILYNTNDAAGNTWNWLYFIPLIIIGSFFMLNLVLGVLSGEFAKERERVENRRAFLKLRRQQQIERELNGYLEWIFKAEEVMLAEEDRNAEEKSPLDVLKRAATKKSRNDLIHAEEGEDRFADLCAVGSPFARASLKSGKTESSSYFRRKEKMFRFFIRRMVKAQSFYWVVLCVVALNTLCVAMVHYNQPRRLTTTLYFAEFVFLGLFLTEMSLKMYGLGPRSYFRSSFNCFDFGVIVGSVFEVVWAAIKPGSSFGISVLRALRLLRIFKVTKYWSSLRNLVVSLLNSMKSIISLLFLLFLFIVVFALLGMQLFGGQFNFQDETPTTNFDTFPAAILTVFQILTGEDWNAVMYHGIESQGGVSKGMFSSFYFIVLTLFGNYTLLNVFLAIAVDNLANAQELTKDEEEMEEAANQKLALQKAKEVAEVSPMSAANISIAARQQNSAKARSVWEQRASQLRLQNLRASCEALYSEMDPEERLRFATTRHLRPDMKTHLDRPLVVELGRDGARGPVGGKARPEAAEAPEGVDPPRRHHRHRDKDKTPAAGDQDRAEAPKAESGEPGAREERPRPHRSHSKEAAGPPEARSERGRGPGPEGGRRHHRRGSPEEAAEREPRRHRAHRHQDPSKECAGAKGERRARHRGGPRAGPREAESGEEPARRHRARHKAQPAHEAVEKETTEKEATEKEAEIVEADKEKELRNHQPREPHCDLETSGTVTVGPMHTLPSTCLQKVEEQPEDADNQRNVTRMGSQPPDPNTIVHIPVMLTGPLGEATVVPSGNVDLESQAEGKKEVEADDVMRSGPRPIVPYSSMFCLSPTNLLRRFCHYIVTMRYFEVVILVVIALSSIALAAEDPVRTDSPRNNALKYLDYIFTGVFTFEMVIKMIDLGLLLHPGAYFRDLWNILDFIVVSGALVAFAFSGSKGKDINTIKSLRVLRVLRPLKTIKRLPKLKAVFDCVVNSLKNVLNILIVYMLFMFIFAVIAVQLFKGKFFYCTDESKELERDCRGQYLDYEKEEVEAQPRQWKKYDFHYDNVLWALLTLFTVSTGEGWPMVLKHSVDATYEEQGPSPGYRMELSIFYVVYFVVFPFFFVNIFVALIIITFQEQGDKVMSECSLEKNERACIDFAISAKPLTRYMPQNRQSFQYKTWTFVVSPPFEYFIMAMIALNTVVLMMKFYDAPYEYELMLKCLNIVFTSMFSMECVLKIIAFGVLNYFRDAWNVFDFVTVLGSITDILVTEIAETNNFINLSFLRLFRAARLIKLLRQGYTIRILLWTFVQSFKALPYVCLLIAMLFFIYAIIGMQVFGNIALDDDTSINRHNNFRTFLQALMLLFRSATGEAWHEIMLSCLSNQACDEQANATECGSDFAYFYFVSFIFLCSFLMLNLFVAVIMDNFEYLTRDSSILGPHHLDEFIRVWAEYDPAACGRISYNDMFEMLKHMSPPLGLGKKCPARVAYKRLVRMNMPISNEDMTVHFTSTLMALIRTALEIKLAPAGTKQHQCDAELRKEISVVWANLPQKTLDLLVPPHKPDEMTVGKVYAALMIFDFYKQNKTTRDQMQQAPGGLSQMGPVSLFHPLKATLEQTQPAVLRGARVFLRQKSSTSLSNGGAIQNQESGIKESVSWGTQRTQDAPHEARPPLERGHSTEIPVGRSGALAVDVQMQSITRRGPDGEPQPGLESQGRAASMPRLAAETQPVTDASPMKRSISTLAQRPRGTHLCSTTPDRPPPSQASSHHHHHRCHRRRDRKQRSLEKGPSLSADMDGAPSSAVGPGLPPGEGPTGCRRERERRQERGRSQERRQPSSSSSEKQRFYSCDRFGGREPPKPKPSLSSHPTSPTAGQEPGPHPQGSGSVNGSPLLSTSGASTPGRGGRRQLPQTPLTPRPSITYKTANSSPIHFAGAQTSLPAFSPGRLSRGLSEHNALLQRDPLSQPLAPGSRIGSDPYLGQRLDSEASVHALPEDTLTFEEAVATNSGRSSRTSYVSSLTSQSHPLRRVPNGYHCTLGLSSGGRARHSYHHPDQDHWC", "T7 sequence (Q02410 whole entry)": "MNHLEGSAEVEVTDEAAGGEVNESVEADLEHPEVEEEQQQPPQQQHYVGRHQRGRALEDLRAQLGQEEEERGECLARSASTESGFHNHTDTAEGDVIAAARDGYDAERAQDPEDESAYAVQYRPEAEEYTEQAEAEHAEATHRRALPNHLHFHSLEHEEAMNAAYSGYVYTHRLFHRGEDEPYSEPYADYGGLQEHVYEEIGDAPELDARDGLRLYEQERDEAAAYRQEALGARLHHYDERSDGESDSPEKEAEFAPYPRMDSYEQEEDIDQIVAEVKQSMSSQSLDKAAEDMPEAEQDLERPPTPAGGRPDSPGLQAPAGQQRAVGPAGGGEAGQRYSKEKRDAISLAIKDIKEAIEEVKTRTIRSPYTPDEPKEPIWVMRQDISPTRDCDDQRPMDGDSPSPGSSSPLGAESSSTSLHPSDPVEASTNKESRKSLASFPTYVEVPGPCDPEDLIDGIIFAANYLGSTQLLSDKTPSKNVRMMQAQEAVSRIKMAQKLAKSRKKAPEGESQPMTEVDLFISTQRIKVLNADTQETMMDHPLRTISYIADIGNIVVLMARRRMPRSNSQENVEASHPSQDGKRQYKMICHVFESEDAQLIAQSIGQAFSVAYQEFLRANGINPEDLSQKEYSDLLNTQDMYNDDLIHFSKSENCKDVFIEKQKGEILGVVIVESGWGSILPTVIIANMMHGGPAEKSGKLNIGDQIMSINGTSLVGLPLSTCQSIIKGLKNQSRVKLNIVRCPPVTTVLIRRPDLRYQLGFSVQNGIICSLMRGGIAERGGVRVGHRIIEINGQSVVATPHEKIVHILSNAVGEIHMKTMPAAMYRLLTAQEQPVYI", "format": "protein assay"}, "[20]": {"molecular_target": "T8, Carboxy-terminal domain RNA polymerase II polypeptide A small phosphatase 1 (Homo sapiens, UniProt Q9GZU7)", "T8 sequence (Q9GZU7 whole entry)": "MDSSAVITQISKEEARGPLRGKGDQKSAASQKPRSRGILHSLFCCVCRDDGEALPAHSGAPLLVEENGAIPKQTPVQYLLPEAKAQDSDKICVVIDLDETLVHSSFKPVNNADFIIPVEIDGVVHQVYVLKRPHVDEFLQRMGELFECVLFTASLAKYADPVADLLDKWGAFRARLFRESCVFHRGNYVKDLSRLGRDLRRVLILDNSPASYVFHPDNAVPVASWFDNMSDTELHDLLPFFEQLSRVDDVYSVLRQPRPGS", "assay": "inhibitors of CTDSP1, concentration-response testing, biochemical assay, absorbance-based, actives from ultra-high-throughput screening (AID 540297)", "format": "functional"}, "[21]": {"molecular_target": "T7, Voltage-gated N-type calcium channel alpha-1B subunit/Amyloid beta A4 precursor protein-binding family A member 1", "format": "protein assay", "remark": "listed apart in the source"}, "[22]": {"molecular_target": "T6, Dual specificity protein phosphatase 3", "assay": "VHR1 phosphatase inhibitors, biochemical (AID 1878)"}},
  "note": "Activity calls are given as the source filed them.",
  "data": [
    {"smiles": "Cc1nn(C(C)C)c(C)c1CN1CCC(C(=O)Nc2cccc(-c3cccc(F)c3)c2)CC1", "values": [
      {"measurement": "IC50", "setting": "[1]", "value": "12 µM (active)"},
      {"measurement": "IC50", "setting": "[2]", "value": "53 µM (active)"},
      {"measurement": "EC50", "setting": "[3]", "value": "1.15 µM (active)"},
      {"measurement": "EC50", "setting": "[4]", "value": "30.4 µM (active)"},
      {"measurement": "IC50", "setting": "[5]", "value": "7.53 µM (active)"}
    ]},
    {"smiles": "Cc1ccccc1N1CCN(c2ncnc3c2cnn3Cc2ccc(Cl)cc2)CC1", "values": [
      {"measurement": "IC50", "setting": "[6]", "value": "> 32 µM (not active)"},
      {"measurement": "CC50", "setting": "[7]", "value": "> 40 µM (active)"},
      {"measurement": "EC50", "setting": "[8]", "value": "54.1 µM (active)"},
      {"measurement": "EC50", "setting": "[9]", "value": "42.2 µM (active)"},
      {"measurement": "IC50", "setting": "[10]", "value": "0.615 µM (active)"},
      {"measurement": "EC50", "setting": "[11]", "value": "1.14 µM (active)"},
      {"measurement": "IC50", "setting": "[12]", "value": "> 32 µM (inactive)"},
      {"measurement": "EC50", "setting": "[13]", "value": "4.09 µM (active)"}
    ]},
    {"smiles": "Oc1ccc(-c2cn3cc(C(F)(F)F)ccc3n2)cc1", "values": [
      {"measurement": "AC50", "setting": "CAAX prenyl protease 2", "value": "10.5 µM (active)"},
      {"measurement": "AC50", "setting": "[14]", "value": "3.4 µM (active)"},
      {"measurement": "AC50", "setting": "CAAX prenyl protease 1", "value": "8.29 µM (active)"},
      {"measurement": "AC50", "setting": "Trypsin", "value": "11.1 µM (active)"}
    ]},
    {"smiles": "N=C(NC1CCCCC1)c1ccc(Cl)cc1", "values": [
      {"measurement": "EC50", "setting": "[15]", "value": "1.68 µM (active)"},
      {"measurement": "IC50", "setting": "[16]", "value": "4.56 µM (active)"}
    ]},
    {"smiles": "Cc1cc2c(s1)CCCCC(=O)N2", "values": [
      {"measurement": "AC50", "setting": "Cytochrome P450 2D6", "value": "inconclusive"}
    ]},
    {"smiles": "COc1ccc(NC(=O)c2cc3c(COC(C)=O)cnc(C)c3o/c2=N\\c2cccc(C(=O)O)c2)c(OC)c1", "values": [
      {"measurement": "IC50", "setting": "[17]", "value": "> 158 µM (not active)"},
      {"measurement": "IC50", "setting": "[18]", "value": "4.9 µM (active)"},
      {"measurement": "IC50", "setting": "[19]", "value": "> 50 µM (inactive)"},
      {"measurement": "IC50", "setting": "[20]", "value": "0.737 µM (active)"},
      {"measurement": "IC50", "setting": "[21]", "value": "3.13 µM (active)"},
      {"measurement": "IC50", "setting": "[22]", "value": "1.53 µM (active)"}
    ]}
  ]
}
